A short description of data set [1]: BKZ flammability test (Swiss standard, vertical burning). The procedure: The synthesized compounds were evaluated for flame retardant properties by incorporating them in flexible PU foams.
The flexible polyurethane foams were manufactured according to the recipe mentioned in Table 3 below.
The manufacture of the foams according to the formulations in Table 3 was done by handmix in the laboratory based on 200 gms polyol. The formulation of the components taking part in the reaction was identical in all cases except for the addition of Flame retardants where indicated.
The resulting foams were dried and aged for 3 h at 80° C. The foams were then tested for their flammability according to Swiss flammability standard (BKZ). It's a vertical burning test for foamed materials with a specific sample size (length: 160 mm, width: 60 mm, thickness: 6 mm±10% tolerance). For each specimen flame test (BKZ) was performed in triplicate. If the results were not consistent, each specimen was tested 6 times. For the BKZ test an air dried specimen was placed in a vertical position and subjected to flame from the lower front edge by a standardized flame. The flame height of 20 mm was maintained and should burn constantly with sharp outlines. The burner position was adjusted 45° so that the flame hits the specimen vertically in the middle of the lower front edge. The flame is brought in contact with the foam for 15 sec and should be placed such that the foam bottom is approximately 4±1 mm inside the flame from the tip.

A short description of data set [2]: UL-94 HB test (ASTM D4986 or ISO/DIS 9772.3, horizontal). The conditions noted are these: for flame retardancy effect compared to unmodified DOPO: Table 6; for UL 94 HB test rating (Horizontal): OH terminated prepolymer foam.
The nature of data set [3]: TGA thermal decomposition of DOPO and amino DOPO derivatives. It is filed as physicochemical. Conditions: for TdMax: Temperature for maximum decomposition rate: several values = multiple decomposition stages. As to the method: One of the important objectives of developing various amino derivatives of DOPO was to improve the thermal stability of DOPO itself. This will ensure their suitability to be used in thermoplastic polymers which require usually high processing temperatures (200-350° C.).

Data set [4] in a line: Small Burner test, DIN 4102-1 class B2, edge application of flame. The conditions noted are these: spray foam. As to the method: The Small Burner test equipment employed within this patent is in accordance to the requirements for the tests of the building materials class B2 specified in DIN 4102-1.
All flame tests done within this report are based on edge application of the impinging flame.
The B2-burner tests were carried out approx. one week after foaming.

Data set [5] can be described thus: Water solubility of DOPO compounds. Format: physicochemical. Conditions: for water solubility in words: up to 90° C.; for solubility: water. The text has this: These DOPO-derivatives are very barely soluble in water as it is exemplarily shown for EDAB-DOPO and TEPA-PDOPO in table 2.
The mark [6] stands for this setting: 5% FR in flexible PU foam (Table 3 recipe, handmix).
The mark [7] stands for this setting: 25° C., read-out: solubilitiy FR in water mg/L.
The mark [8] stands for this setting: 25° C., read-out: solubilitiy FR in water mmol/L.
[9] abbreviates: 90° C., read-out: solubilitiy FR in water mg/L.
Setting [10] is: 90° C., read-out: solubilitiy FR in water mmol/L.

Consider nine compounds from patent US9650497B2, “Phosphonamidates-synthesis and flame retardant applications” (EMPA EIDGENOSSISCHE MATERIALPRUFUNGS- UND FORSCHUNGSANSTALT, priority 2011, dated 2017).

Like-named read-outs stand apart in the source and are kept apart here.

`C=CCNP1(=O)Oc2ccccc2-c2ccccc21` (centres unmarked) [AA-DOPO]: the “BKZ Classification” value in data set [1] (setting [6]) is “Class 5 (flame does not reach the top level of the sample holder (150 mm). duration ≦ 20 s)”. Further, in data set [2] (5% FR in flexible PU foam), the “Burning Rate” value came to 47 mm/min, the “UL-94 HB Rating” value was “HF-2” and the “flame retardancy effect compared to unmodified DOPO” value is given as “better flame retardancy effect as compared to unmodified DOPO”. Moreover, in data set [3], the “Td1: Temperature for 10% weight loss” value stood at 247 °C, the “% Char at 800° C.” value came to 3% and the “TdMax: Temperature for maximum decomposition rate” value (“TdMax: Temperature” below) came to 295 °C.

For `O=[PH]1Oc2ccccc2-c2ccccc21` (centres unmarked) [DOPO, 9,10-dihydro-9-oxa-phosphaphenanthrene-10-oxide, reference compound], in data set [1] (setting [6]), the “BKZ Classification” value is reported as “Class 5 (flame does not reach the top level of the sample holder (150 mm). duration ≦ 20 s)”. Also, in data set [2] (5% FR in flexible PU foam), the “Burning Rate” value came out at 48 mm/min and the “UL-94 HB Rating” value is “HBF”. Besides, in data set [3], the “Td1: Temperature for 10% weight loss” value stood at 201 °C, the “temperature at which decomposition starts” value was under 200 °C, the “% Char at 800° C.” value is recorded as 2% and the “TdMax: Temperature” value is 267 °C.

As to `O=P1(NCCOP2(=O)Oc3ccccc3-c3ccccc32)Oc2ccccc2-c2ccccc21` (centres unmarked) [EAB-DOPO], in data set [3], the “Td1: Temperature for 10% weight loss” value turned out to be 311 °C, the “% Char at 800° C.” value is 2% and the “TdMax: Temperature” value amounted to 387 °C.

`O=P1(NCCNP2(=O)Oc3ccccc3-c3ccccc32)Oc2ccccc2-c2ccccc21` (centres unmarked) [EDAB-DOPO]: in data set [4], the “effect of doubling the amount of FR on flame height and extinguishing of the flame” value is “no significant effect”. In addition, the “water solubility in words” value in data set [5] is reported as “only very small amounts”. The solubility in data set [5] (setting [7]) was 393 mg/L. In addition, in data set [5] (setting [8]), the solubility was 0.8 mmol/L. In addition, in data set [5] (setting [9]), the solubility stood at 501 mg/L. In data set [5] (setting [10]), the solubility was 1.03 mmol/L. Further, the “BKZ Classification” value in data set [1] (setting [6]) is “Class 5 (flame does not reach the top level of the sample holder (150 mm). duration ≦ 20 s)”. Moreover, the “flammability performance versus TCPP” value in data set [1] (polyether foam, lower density, 2.8 pphp water, columns 3 and 5) is “works better at least in vertical tests”. Moreover, the “effect on flammability versus foam without FR” value in data set [1] (polyether foam, water 1.6 pphp, columns 4 and 1) is “positive effect on flammability”. Also, in data set [1] (polyether foam, water 1.6 pphp, columns 4 and 2), the “flammability performance versus TCPP” value is on record as “works at least as well than TCPP”. In addition, in data set [2] (5% FR in flexible PU foam), the “Burning Rate” value is listed as 25 mm/min, the “UL-94 HB Rating” value is “HF-1” and the “flame retardancy effect compared to unmodified DOPO” value is listed as “better flame retardancy effect as compared to unmodified DOPO”. In addition, in data set [3], the “Td1: Temperature for 10% weight loss” value is 355 °C, the “% Char at 800° C.” value was 7% and the “TdMax: Temperature” value was determined as 415 °C.

For the compound `O=P1(N2CCN(P3(=O)Oc4ccccc4-c4ccccc43)CC2)Oc2ccccc2-c2ccccc21` (centres unmarked) [PB-DOPO], the “BKZ Classification” value in data set [1] (setting [6]) is “Class 5 (flame does not reach the top level of the sample holder (150 mm). duration ≦ 20 s)”. For the same compound, in data set [2] (5% FR in flexible PU foam), the “Burning Rate” value is listed as 57 mm/min and the “UL-94 HB Rating” value was “HBF”. In addition, in data set [3], the “Td1: Temperature for 10% weight loss” value amounted to 387 °C, the “% Char at 800° C.” value is on record as 5% and the “TdMax: Temperature” value worked out at 433 °C.

Regarding `CC(CCl)OP(=O)(OC(C)CCl)OC(C)CCl` (centres unmarked) [TCPP, Tris(2-chlorisopropyl)phosphate, reference compound], the “BKZ Classification” value in data set [1] is listed as “Class 5 (key: Class 3: time 5-20 s; Class 4: time, duration of burning > 20 s; Class 5: flame does not reach the top level of the sample holder (150 mm). duration ≦ 20 s)”. In addition, in data set [2], the “Burning Rate” value was 23 mm/min and the “UL-94 HB Rating” value is recorded as “HBF”.

Turning to `O=P1(NCCN(CCNP2(=O)Oc3ccccc3-c3ccccc32)P2(=O)Oc3ccccc3-c3ccccc32)Oc2ccccc2-c2ccccc21` (centres unmarked) [TDETA-DOPO], the “BKZ Classification” value in data set [1] (setting [6]) is “Class 5 (flame does not reach the top level of the sample holder (150 mm). duration ≦ 20 s)”. Further, the “UL-94 HB Rating” value in data set [2] (5% FR in flexible PU foam) is recorded as “HF-1”. For the same compound, in data set [3], the “Td1: Temperature for 10% weight loss” value stood at 294 °C, the “% Char at 800° C.” value was 2% and the “TdMax: Temperature” value was found to be 385 °C.

On to `O=P1(NCCN(CCN(CCN(CCNP2(=O)Oc3ccccc3-c3ccccc32)P2(=O)Oc3ccccc3-c3ccccc32)P2(=O)Oc3ccccc3-c3ccccc32)P2(=O)Oc3ccccc3-c3ccccc32)Oc2ccccc2-c2ccccc21` (centres unmarked) [TEPA-PDOPO, tetraethylenepentaamine DOPO], for which the “effect of doubling the amount of FR on flame height and extinguishing of the flame” value in data set [4] was “no significant effect”. Also, in data set [5], the “water solubility in words” value is on record as “only very small amounts”. Also, the solubility in data set [5] (setting [7]) stood at 15.4 mg/L; in data set [5] (setting [8]) it was 0.01 mmol/L; in data set [5] (setting [9]), 818 mg/L; in data set [5] (setting [10]) it was 0.65 mmol/L. In data set [1] (setting [6]), the “BKZ Classification” value is listed as “Class 5 (flame does not reach the top level of the sample holder (150 mm). duration ≦ 20 s)”. The “BKZ Class (Vertical)” value in data set [1] (10 pphp FR, OH terminated prepolymer foam) is recorded as 5. Moreover, the “effect of more FR on flammability behavior” value in data set [1] (OH terminated prepolymer foam, 5 vs 10 pphp, horizontal and vertical tests) was “improves flammability behavior in both horizontal and vertical tests”. Also, the “UL-94 HB Rating” value in data set [2] (5% FR in flexible PU foam) is recorded as “HF-1”. Moreover, the “UL 94 HB test rating (Horizontal)” value in data set [2] (5 pphp FR) is on record as “HF2”; in data set [2] (10 pphp FR), “HF1”.

`CCO[Si](CCCNP1(=O)Oc2ccccc2-c2ccccc21)(OCC)OCC` (centres unmarked) [TESPA-DOPO]: in data set [3], the “Td1: Temperature for 10% weight loss” value is 234 °C, the “% Char at 800° C.” value turned out to be 28% and the “TdMax: Temperature” value was 135/287/437.
